EC50 data for 31 compounds are collected here from patent US20240166652A1, “MODULATORS OF THE INTEGRATED STRESS PATHWAY” (Calico Life Sciences LLC, priority 2017, published 2024).

Molecules are shown by their SMILES.

This experiment relates to ATF4 luciferase reporter in HEK293T cells. The experiment in a line: ATF4-Luc assay (ATF4 luciferase reporter, tunicamycin-treated HEK293T cells). The experiment is classed as cell-based, human. The settings on record: Homo sapiens, HEK-293T; HEK293T cells carrying the ATF4 luciferase reporter, 1 μg/mL tunicamycin, 7 hours. For orientation: Reporter assays use an easily measured gene product as a stand-in for the process of interest.
On to `Nc1cc(OCC(=O)NC23CC(NC(=O)COc4ccc(Cl)c(F)c4)(C2)C3)ccc1Cl` [Compound 228, 2-(3-amino-4-chlorophenoxy)-N-{3-[2-(4-chloro-3-fluorophenoxy)acetamido]-bicyclo[1.1.1]pentan-1-yl}acetamide], for which the EC50 is less than 10 nM.
With `Cc1ccc(OCC(=O)NC23CC(NC(=O)COc4ccc(Cl)c(F)c4)(C2)C3)c(N)n1` [Compound 229, 2-[(2-amino-6-methylpyridin-3-yl)oxy]-N-{3-[2-(4-chloro-3-fluorophenoxy)acetamido]bicyclo[1.1.1]pentan-1-yl}acetamide], the concentration giving a half-maximal response (EC50) is 500 to 2000 nM.
As for `O=C(COc1cncc(C(F)(F)F)c1)NC12CC(NC(=O)COc3ccc(Cl)c(F)c3)(C1)C2` [Compound 230, 2-(4-chloro-3-fluorophenoxy)-N-[3-(2-{[5-(trifluoromethyl)pyridin-3-yl]oxy}acetamido)bicyclo[1.1.1]pentan-1-yl]acetamide], the EC50 was in the range of 10 to 50 nM.
On to `O=C(COc1ccc(Cl)c(F)c1)NC12CC(NC(=O)COc3cnc(Cl)c(C(=O)O)c3)(C1)C2` [Compound 231, 2-chloro-5-[2-({3-[2-(4-chloro-3-fluorophenoxy)acetamido]-bicyclo[1.1.1]pentan-1-yl}amino)-2-oxoethoxy]pyridine-3-carboxylic Acid], for which the EC50 was more than 2000 nM.
Turning to `Cc1ccc(OCC(=O)NC23CC(NC(=O)COc4ccc(Cl)c(F)c4)(C2)C3)c(C)n1` [Compound 232, 2-(4-chloro-3-fluorophenoxy)-N-(3-{2-[(2,6-dimethylpyridin-3-yl)oxy]acetamido}bicyclo[1.1.1]pentan-1-yl)acetamide], the EC50 was 500 to 2000 nM.
As to `O=C(COc1ccnc(C(F)(F)F)c1)NC12CC(NC(=O)COc3ccc(Cl)c(F)c3)(C1)C2` [Compound 233, 2-(4-chloro-3-fluorophenoxy)-N-[3-(2-{[2-(trifluoromethyl)pyridin-4-yl]oxy}acetamido)bicyclo[1.1.1]pentan-1-yl]acetamide], the EC50 lay within 10 to 50 nM.
As to `Cc1cc(OCC(=O)NC23CC(NC(=O)COc4ccc(Cl)c(F)c4)(C2)C3)cnc1C` [Compound 234, 2-(4-chloro-3-fluorophenoxy)-N-(3-{2-[(5,6-dimethylpyridin-3-yl)oxy]acetamido}bicyclo[1.1.1]pentan-1-yl)acetamide], the EC50 is 50 to 250 nM.
With `CC(=O)c1ccc(OCC(=O)NC23CC(NC(=O)COc4ccc(Cl)c(F)c4)(C2)C3)cn1` [Compound 235, 2-[(6-acetylpyridin-3-yl)oxy]-N-{3-[2-(4-chloro-3-fluorophenoxy)acetamido]0-bicyclo[1.1.1]pentan-1-yl}acetamide], the EC50 was in the range of 50 to 250 nM.
In the case of `Nc1nc(Cl)ccc1OCC(=O)NC12CC(NC(=O)COc3ccc(Cl)c(F)c3)(C1)C2` [Compound 236, 2-[(2-amino-6-chloropyridin-3-yl)oxy]-N-{3-[2-(4-chloro-3-fluorophenoxy)acetamido]bicyclo[1.1.1]pentan-1-yl}acetamide] it was 10 to 50 nM.
As to `Cc1ccc(OCC(=O)NC23CC(NC(=O)COc4ccc(Cl)c(F)c4)(C2)C3)c(Cl)n1` [Compound 237, 2-(4-chloro-3-fluorophenoxy)-N-(3-{2-[(2-chloro-6-methylpyridin-3-yl)oxy]acetamido}bicyclo[1.1.1]pentan-1-yl)acetamide], the 50% effective concentration (EC50) lay in the range of 50 to 250 nM.
With `N#Cc1ccc(OCC(=O)NC23CC(NC(=O)COc4ccc(Cl)c(F)c4)(C2)C3)cn1` [Compound 238, 2-(4-chloro-3-fluorophenoxy)-N-(3-{2-[(6-cyanopyridin-3-yl)oxy]acetamido}bicyclo[1.1.1]pentan-1-yl)acetamide], the EC50 fell in the range of 10 to 50 nM.
Regarding `CCc1nc(C)ccc1OCC(=O)NC12CC(NC(=O)COc3ccc(Cl)c(F)c3)(C1)C2` [Compound 239, 2-(4-chloro-3-fluorophenoxy)-N-(3-{2-[(2-ethyl-6-methylpyridin-3-yl)oxy]acetamido}bicyclo[1.1.1]pentan-1-yl)acetamide], the EC50 is more than 2000 nM.
On to `O=C(COc1ccc(Cl)c(F)c1)NC12CC(NC(=O)COc3cnc(F)c(Cl)c3)(C1)C2` [Compound 240, 2-(4-chloro-3-fluorophenoxy)-N-(3-{2-[(5-chloro-6-fluoropyridin-3-yl)oxy]acetamido}bicyclo[1.1.1]pentan-1-yl)acetamide], for which the EC50 is less than 10 nM.
In the case of `COc1ccc(OCC(=O)NC23CC(NC(=O)COc4ccc(Cl)c(F)c4)(C2)C3)cn1` [Compound 241, 2-(4-chloro-3-fluorophenoxy)-N-(3-{2-[(6-methoxypyridin-3-yl)oxy]acetamido}bicyclo[1.1.1]pentan-1-yl)acetamide] it was 10 to 50 nM.
In the case of `Cc1cc(OCC(=O)NC23CC(NC(=O)COc4ccc(Cl)c(F)c4)(C2)C3)cnc1C#N` [Compound 242, 2-(4-chloro-3-fluorophenoxy)-N-(3-{2-[(6-cyano-5-methylpyridin-3-yl)oxy]acetamido}bicyclo[1.1.1]pentan-1-yl)acetamide] it was 10 to 50 nM.
As for `Cc1cc(Cl)ncc1OCC(=O)NC12CC(NC(=O)COc3ccc(Cl)c(F)c3)(C1)C2` [Compound 243, 2-(4-chloro-3-fluorophenoxy)-N-(3-{2-[(6-chloro-4-methylpyridin-3-yl)oxy]acetamido}bicyclo[1.1.1]pentan-1-yl)acetamide], the figure is 250 to 500 nM.
Take `Cc1cc(OCC(=O)NC23CC(NC(=O)COc4ccc(Cl)c(F)c4)(C2)C3)cnc1F` [Compound 244, 2-(4-chloro-3-fluorophenoxy)-N-(3-{2-[(6-fluoro-5-methylpyridin-3-yl)oxy]acetamido}bicyclo[1.1.1]pentan-1-yl)acetamide]: the EC50 is less than 10 nM.
As for `Cc1ccc(OCC(=O)NC23CC(NC(=O)COc4ccc(Cl)c(F)c4)(C2)C3)c(F)n1` [Compound 245, 2-(4-chloro-3-fluorophenoxy)-N-(3-{2-[(2-fluoro-6-methylpyridin-3-yl)oxy]acetamido}bicyclo[1.1.1]pentan-1-yl)acetamide], the EC50 is 10 to 50 nM.
As for `COc1cc(OCC(=O)NC23CC(NC(=O)COc4ccc(Cl)c(F)c4)(C2)C3)cnc1F` [Compound 246, 2-(4-chloro-3-fluorophenoxy)-N-(3-{2-[(6-fluoro-5-methoxypyridin-3-yl)oxy]acetamido}bicyclo[1.1.1]pentan-1-yl)acetamide], the EC50 lay within 10 to 50 nM.
Turning to `Cc1cc(F)ncc1OCC(=O)NC12CC(NC(=O)COc3ccc(Cl)c(F)c3)(C1)C2` [Compound 247, 2-(4-chloro-3-fluorophenoxy)-N-(3-{2-[(6-fluoro-4-methylpyridin-3-yl)oxy]acetamido}bicyclo[1.1.1]pentan-1-yl)acetamide], the EC50 is 50 to 250 nM.
As for `CC(C)c1ccc(OCC(=O)NC23CC(NC(=O)COc4ccc(Cl)c(F)c4)(C2)C3)cn1` [Compound 248, 2-(4-chloro-3-fluorophenoxy)-N-[3-(2-{[6-(propan-2-yl)pyridin-3-yl]oxy}acetamido)bicyclo[1.1.1]pentan-1-yl]acetamide], the EC50 lay within 50 to 250 nM.
For `Cc1nc(F)ccc1OCC(=O)NC12CC(NC(=O)COc3ccc(Cl)c(F)c3)(C1)C2` [Compound 249, 2-(4-chloro-3-fluorophenoxy)-N-(3-{2-[(6-fluoro-2-methylpyridin-3-yl)oxy]acetamido}bicyclo[1.1.1]pentan-1-yl)acetamide], the EC50 was 250 to 500 nM.
With `Nc1ncc(OCC(=O)NC23CC(NC(=O)COc4ccc(Cl)c(F)c4)(C2)C3)cc1Cl` [Compound 250, 2-[(6-amino-5-chloropyridin-3-yl)oxy]-N-{3-[2-(4-chloro-3-fluorophenoxy)acetamido]bicyclo[1.1.1]pentan-1-yl}acetamide], the EC50 was in the range of 50 to 250 nM.
`O=C(COc1ccc(C2CC2)nc1)NC12CC(NC(=O)COc3ccc(Cl)c(F)c3)(C1)C2` [Compound 251, 2-(4-chloro-3-fluorophenoxy)-N-(3-{2-[(6-cyclopropylpyridin-3-yl)oxy]acetamido}bicyclo[1.1.1]pentan-1-yl)acetamide]: the EC50 is 10 to 50 nM.
For the compound `COc1ccc(OCC(=O)NC23CC(NC(=O)COc4ccc(Cl)c(F)c4)(C2)C3)c(C)n1` [Compound 252, 2-(4-chloro-3-fluorophenoxy)-N-(3-{2-[(6-methoxy-2-methylpyridin-3-yl)oxy]acetamido}bicyclo[1.1.1]pentan-1-yl)acetamide], the EC50 lay in the range of 50 to 250 nM.
With `COc1ncc(OCC(=O)NC23CC(NC(=O)COc4ccc(Cl)c(F)c4)(C2)C3)cc1C` [Compound 253, 2-(4-chloro-3-fluorophenoxy)-N-(3-{2-[(6-methoxy-5-methylpyridin-3-yl)oxy]acetamido}bicyclo[1.1.1]pentan-1-yl)acetamide], the EC50 lay within 10 to 50 nM.
As for `O=C(COc1ccc(Cl)c(F)c1)NC12CC(NC(=O)COc3cnc4cc[nH]c4c3)(C1)C2` [Compound 254, 2-(4-chloro-3-fluorophenoxy)-N-(3-{2-[(1H-pyrrolo[3,2-b]pyridin-6-yl)oxy]acetamido}bicyclo[1.1.1]pentan-1-yl)acetamide], the EC50 was 250 to 500 nM.
In the case of `O=C(COc1ccc(Cl)c(F)c1)NC12CC(NC(=O)COc3cnc4ccoc4c3)(C1)C2` [Compound 255, 2-(4-chloro-3-fluorophenoxy)-N-(3-{2-[(furo[3,2-b]pyridin-6-yl)oxy]acetamido}bicyclo[1.1.1]pentan-1-yl)acetamide] it was 50 to 250 nM.
For the compound `O=C(COc1ccc(Cl)c(F)c1)NC12CC(NC(=O)COc3ccc(C(F)(F)F)nn3)(C1)C2` [Compound 256, 2-(4-chloro-3-fluorophenoxy)-N-[3-(2-{[6-(trifluoromethyl)pyridazin-3-yl]oxy}acetamido)bicyclo[1.1.1]pentan-1-yl]acetamide], the 50% effective concentration (EC50) lay within 50 to 250 nM.
`CS(=O)(=O)c1ccc(OCC(=O)NC23CC(NC(=O)COc4ccc(Cl)c(F)c4)(C2)C3)cn1` [Compound 257, 2-(4-chloro-3-fluorophenoxy)-N-[3-(2-{[6-(methanesulfonyl)pyridin-3-yl]oxy}acetamido)bicyclo[1.1.1]pentan-1-yl]acetamide]: the EC50 is 250 to 500 nM.
Take `O=C(COc1ccc(Cl)c(F)c1)NC12CC(NC(=O)COc3ccc4c(c3)OC(F)(F)O4)(C1)C2` [Compound 258, 2-(4-chloro-3-fluorophenoxy)-N-(3-{2-[(2,2-difluoro-2H-1,3-benzodioxol-5-yl)oxy]acetamido}bicyclo[1.1.1]pentan-1-yl)acetamide]: the EC50 is less than 10 nM.

As a reminder, the EC50 is the midpoint of the concentration-response curve.
